Measurements as given in ChEMBL document CHEMBL3991601, “The target landscape of clinical kinase drugs” (Science, 2017).
Active and inactive are the calls of the source. Rule as the data show it, for most assays here: actives have a measured Kd and inactives only a lower limit.

Key:
[1] = target: Bone morphogenetic protein receptor type-1B (Homo sapiens, UniProt O00238)
[2] = target: Tyrosine-protein kinase BTK (Homo sapiens, UniProt Q06187)
[3] = target: Citron Rho-interacting kinase (Homo sapiens, UniProt O14578)
[4] = target: Tyrosine-protein kinase CSK (Homo sapiens, UniProt P41240)
[5] = target: Casein kinase II subunit alpha' (Homo sapiens, UniProt P19784)
[6] = target: T1, Scaffold protein ILK (Homo sapiens, UniProt Q13418)
T1 sequence (Q13418 whole entry): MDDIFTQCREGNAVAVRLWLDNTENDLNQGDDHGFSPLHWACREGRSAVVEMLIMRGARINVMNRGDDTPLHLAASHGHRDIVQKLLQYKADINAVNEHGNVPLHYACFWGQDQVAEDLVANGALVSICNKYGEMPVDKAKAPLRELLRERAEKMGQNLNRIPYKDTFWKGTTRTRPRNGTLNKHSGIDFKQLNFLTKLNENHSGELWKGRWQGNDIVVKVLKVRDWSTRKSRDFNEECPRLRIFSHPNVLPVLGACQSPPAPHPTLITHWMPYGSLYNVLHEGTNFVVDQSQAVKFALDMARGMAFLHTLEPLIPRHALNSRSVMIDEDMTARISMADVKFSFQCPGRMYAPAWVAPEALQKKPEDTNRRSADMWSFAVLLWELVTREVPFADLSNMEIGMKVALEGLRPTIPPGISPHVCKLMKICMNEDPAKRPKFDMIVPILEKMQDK

[7] = target: T2, Mitogen-activated protein kinase kinase kinase 2 (Homo sapiens, UniProt Q9Y2U5)
T2 sequence (Q9Y2U5 whole entry): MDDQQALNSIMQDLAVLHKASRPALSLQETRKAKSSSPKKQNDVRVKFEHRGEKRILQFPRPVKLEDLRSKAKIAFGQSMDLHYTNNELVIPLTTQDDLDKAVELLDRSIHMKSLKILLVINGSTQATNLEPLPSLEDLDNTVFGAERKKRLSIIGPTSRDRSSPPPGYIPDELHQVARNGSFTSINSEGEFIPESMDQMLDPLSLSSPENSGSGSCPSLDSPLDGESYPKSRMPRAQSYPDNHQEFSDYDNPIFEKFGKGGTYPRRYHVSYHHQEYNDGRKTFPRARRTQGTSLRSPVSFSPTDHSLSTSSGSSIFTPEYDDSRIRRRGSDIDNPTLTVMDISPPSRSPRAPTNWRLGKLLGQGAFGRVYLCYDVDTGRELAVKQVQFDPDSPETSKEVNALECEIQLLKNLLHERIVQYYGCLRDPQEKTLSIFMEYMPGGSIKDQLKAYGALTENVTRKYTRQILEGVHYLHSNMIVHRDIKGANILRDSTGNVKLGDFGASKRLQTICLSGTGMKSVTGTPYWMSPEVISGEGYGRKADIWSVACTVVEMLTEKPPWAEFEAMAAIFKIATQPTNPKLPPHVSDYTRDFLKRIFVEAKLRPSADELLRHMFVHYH

[8] = target: T3, Mitogen-activated protein kinase 15 (Homo sapiens, UniProt Q8TD08)
T3 sequence (Q8TD08 whole entry): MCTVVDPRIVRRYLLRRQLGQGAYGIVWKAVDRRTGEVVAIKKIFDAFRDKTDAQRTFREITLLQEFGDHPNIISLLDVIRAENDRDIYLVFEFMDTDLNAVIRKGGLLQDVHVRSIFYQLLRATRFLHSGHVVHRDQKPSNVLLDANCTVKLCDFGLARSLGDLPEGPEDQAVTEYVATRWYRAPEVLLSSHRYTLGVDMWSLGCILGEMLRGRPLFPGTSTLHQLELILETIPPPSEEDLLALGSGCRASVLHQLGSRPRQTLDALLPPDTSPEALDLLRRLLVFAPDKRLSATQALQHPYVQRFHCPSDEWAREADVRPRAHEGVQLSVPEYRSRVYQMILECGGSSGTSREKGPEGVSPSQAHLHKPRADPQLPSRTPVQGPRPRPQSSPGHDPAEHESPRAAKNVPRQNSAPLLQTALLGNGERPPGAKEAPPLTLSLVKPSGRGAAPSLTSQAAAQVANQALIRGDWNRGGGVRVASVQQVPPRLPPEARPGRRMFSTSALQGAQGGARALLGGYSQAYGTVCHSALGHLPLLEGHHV

[9] = target: Serine/threonine-protein kinase N1 (Homo sapiens, UniProt Q16512)
[10] = target: cAMP-dependent protein kinase catalytic subunit alpha (Homo sapiens, UniProt P17612)
[11] = target: T4, Serine/threonine-protein kinase D3 (Homo sapiens, UniProt O94806)
T4 sequence (O94806 whole entry): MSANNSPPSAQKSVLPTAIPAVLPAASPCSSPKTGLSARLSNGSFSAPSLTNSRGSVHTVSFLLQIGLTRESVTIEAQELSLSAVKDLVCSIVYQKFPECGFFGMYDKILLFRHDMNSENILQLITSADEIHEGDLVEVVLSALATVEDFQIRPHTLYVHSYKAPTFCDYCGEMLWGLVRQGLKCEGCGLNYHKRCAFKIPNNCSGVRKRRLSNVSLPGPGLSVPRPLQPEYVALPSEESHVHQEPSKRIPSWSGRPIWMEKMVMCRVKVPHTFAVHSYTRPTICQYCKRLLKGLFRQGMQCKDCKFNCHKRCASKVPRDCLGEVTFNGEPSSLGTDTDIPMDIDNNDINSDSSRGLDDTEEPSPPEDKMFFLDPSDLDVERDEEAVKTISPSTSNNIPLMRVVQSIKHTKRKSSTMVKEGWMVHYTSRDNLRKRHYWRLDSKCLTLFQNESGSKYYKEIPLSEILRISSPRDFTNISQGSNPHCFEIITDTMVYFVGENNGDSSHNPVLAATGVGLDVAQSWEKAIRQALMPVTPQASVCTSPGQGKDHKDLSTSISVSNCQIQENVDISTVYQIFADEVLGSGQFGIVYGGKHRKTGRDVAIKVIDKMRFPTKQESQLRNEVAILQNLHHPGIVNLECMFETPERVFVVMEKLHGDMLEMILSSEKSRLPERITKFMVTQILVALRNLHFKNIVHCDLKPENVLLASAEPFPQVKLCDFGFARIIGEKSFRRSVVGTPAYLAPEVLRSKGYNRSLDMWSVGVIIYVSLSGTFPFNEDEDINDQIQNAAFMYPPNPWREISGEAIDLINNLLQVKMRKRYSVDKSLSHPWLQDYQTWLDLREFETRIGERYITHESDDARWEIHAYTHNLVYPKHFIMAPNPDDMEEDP

[12] = target: Mitogen-activated protein kinase kinase kinase 20 (Homo sapiens, UniProt Q9NYL2)
Also: in the data inactive means no Kd found up to 30 µM.

Serine/threonine-protein kinase N1, sequence (Q16512 whole entry): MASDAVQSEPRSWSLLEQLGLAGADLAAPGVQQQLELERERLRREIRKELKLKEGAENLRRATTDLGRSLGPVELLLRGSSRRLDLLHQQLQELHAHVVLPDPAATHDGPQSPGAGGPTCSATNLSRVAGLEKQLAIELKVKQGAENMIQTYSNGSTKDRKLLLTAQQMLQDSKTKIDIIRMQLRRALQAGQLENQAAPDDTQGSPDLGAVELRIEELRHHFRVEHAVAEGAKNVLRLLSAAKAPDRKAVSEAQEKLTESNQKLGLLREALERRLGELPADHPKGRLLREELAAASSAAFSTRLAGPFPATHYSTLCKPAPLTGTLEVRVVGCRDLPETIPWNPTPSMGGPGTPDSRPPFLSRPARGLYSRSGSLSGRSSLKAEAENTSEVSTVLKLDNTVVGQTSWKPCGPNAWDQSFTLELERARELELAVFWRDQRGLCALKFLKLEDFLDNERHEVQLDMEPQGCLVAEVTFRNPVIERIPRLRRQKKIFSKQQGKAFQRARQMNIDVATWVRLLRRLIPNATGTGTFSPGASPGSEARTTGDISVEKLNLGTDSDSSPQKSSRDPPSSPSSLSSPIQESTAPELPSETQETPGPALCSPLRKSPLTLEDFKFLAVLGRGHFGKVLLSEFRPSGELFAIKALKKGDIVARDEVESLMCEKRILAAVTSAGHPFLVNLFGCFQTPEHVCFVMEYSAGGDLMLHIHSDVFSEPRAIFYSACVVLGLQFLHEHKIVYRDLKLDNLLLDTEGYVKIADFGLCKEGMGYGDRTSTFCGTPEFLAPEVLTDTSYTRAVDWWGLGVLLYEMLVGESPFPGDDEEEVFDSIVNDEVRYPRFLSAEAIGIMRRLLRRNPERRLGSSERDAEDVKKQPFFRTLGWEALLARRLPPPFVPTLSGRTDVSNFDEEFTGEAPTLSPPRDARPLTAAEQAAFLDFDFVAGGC
Bone morphogenetic protein receptor type-1B, sequence (O00238 whole entry): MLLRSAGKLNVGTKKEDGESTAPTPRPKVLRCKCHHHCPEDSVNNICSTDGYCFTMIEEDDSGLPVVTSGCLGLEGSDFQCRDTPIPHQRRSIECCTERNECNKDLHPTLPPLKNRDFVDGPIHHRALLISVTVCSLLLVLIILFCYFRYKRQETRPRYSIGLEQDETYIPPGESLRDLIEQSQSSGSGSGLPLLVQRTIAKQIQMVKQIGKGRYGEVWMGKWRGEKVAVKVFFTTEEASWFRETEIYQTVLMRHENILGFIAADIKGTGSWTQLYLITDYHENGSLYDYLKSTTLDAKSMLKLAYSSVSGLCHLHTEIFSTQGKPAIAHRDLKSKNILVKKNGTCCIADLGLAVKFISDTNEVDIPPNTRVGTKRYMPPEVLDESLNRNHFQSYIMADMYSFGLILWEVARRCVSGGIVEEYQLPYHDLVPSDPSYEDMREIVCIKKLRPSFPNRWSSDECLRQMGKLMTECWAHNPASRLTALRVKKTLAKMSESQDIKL
Tyrosine-protein kinase BTK, sequence (Q06187 whole entry): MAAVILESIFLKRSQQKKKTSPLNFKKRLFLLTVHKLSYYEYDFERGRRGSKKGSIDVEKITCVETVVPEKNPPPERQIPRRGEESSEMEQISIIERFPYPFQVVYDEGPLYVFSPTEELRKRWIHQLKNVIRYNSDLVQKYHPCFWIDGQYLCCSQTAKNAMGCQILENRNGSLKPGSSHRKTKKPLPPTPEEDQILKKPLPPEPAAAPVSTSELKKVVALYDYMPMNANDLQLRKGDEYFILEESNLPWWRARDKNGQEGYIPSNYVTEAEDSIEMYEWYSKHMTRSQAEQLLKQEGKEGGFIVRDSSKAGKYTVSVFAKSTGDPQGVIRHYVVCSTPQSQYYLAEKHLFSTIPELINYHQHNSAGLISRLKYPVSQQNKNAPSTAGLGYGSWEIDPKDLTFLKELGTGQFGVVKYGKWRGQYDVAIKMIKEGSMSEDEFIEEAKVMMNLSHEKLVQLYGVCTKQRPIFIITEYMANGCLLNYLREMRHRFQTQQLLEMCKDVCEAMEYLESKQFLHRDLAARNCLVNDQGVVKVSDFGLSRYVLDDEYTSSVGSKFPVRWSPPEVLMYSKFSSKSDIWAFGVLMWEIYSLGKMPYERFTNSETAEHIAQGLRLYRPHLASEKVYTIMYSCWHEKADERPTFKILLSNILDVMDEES
Mitogen-activated protein kinase kinase kinase 20, sequence (Q9NYL2 whole entry): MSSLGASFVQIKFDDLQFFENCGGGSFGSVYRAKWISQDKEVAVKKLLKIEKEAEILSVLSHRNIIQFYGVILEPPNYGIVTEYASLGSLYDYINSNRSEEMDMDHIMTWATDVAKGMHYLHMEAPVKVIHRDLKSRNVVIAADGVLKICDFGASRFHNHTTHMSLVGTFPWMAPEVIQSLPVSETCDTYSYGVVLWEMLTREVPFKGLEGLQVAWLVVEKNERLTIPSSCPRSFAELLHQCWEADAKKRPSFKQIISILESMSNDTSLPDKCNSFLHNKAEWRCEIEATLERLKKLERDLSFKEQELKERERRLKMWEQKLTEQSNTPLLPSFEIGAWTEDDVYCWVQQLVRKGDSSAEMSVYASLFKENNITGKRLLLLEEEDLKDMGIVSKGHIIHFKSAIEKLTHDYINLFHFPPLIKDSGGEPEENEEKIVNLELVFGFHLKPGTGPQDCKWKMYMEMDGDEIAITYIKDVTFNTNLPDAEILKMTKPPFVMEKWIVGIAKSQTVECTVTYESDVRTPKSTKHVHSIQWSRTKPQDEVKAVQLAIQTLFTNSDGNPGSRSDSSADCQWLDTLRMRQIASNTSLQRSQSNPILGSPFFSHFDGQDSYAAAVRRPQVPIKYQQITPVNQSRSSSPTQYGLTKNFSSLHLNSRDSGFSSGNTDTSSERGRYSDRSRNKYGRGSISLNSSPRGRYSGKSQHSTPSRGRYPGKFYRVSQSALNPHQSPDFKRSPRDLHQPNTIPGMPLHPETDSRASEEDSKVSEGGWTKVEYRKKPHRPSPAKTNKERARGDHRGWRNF
Citron Rho-interacting kinase, sequence (O14578 whole entry): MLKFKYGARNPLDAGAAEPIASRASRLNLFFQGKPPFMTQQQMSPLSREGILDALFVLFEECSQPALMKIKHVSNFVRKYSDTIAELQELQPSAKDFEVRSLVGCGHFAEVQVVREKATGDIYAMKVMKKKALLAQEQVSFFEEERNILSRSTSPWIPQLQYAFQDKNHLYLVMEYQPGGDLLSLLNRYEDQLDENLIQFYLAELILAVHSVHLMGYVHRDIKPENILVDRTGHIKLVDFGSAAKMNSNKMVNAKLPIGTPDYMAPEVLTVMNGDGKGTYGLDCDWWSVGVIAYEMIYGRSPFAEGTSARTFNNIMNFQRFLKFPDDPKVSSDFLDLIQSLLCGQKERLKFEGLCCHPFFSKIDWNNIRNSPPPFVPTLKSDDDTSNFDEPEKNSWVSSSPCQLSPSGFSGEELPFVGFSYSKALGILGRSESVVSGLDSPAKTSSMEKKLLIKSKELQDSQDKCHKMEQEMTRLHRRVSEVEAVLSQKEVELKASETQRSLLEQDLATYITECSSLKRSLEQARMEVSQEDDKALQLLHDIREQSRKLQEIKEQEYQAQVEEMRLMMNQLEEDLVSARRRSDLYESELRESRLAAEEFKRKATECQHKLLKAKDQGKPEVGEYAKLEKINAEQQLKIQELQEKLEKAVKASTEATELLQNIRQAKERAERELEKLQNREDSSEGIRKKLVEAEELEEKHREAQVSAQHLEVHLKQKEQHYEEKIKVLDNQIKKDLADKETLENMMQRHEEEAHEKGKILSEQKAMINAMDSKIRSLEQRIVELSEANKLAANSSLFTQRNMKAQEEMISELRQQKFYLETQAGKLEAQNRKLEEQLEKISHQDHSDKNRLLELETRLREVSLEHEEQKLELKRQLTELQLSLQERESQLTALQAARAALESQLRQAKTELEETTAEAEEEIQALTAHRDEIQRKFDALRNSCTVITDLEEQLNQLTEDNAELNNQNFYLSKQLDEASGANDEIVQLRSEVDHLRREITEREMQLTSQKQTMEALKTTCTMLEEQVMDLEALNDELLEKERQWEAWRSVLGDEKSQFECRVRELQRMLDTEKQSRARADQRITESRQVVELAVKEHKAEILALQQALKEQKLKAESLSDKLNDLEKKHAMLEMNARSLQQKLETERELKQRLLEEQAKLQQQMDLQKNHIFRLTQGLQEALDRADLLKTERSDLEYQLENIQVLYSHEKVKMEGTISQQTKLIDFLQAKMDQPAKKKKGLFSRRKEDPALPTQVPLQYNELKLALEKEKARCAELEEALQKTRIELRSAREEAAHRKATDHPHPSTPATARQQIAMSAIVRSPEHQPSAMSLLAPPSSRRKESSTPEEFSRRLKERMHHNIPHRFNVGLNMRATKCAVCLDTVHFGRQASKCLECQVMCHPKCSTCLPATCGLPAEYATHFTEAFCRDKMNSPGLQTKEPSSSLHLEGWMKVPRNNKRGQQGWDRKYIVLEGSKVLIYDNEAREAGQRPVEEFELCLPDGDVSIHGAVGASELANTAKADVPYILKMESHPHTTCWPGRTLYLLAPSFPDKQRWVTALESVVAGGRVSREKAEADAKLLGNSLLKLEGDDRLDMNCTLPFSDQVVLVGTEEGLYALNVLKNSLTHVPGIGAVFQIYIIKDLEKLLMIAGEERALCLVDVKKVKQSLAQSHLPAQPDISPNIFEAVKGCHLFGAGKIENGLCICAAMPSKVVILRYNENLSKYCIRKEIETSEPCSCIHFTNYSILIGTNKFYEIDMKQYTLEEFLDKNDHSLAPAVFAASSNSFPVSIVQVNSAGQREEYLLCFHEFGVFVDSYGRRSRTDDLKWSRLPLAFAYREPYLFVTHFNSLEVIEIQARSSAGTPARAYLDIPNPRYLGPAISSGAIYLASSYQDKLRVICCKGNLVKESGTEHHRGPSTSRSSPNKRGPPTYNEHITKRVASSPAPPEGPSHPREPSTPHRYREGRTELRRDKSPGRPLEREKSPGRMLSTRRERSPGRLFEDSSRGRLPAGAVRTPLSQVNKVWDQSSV

Kd [1] | Kd [2] | Kd [3] | Kd [4] | Kd [5] | Kd [6] | Kd [7] | Kd [9] | Kd [10] | Kd [11] | Kd [12] | Structure (SMILES) | Kd [8]
> 30 µM (inactive) | > 30 µM (inactive) | 4.26 µM (active) | > 30 µM (inactive) | > 30 µM (inactive) | > 30 µM (inactive) | > 30 µM (inactive) | 0.88 µM (active) | 0.133 µM (active) | > 30 µM (inactive) | > 30 µM (inactive) | Cn1ncc(Cl)c1-c1cc(C(=O)N[C@H](CN)Cc2cccc(F)c2)sc1Cl [AFURESERTIB] | > 30 µM (inactive)
> 30 µM (inactive) | > 30 µM (inactive) | > 30 µM (inactive) | > 30 µM (inactive) | > 30 µM (inactive) | > 30 µM (inactive) | > 30 µM (inactive) | > 30 µM (inactive) | > 30 µM (inactive) | > 30 µM (inactive) | 0.316 µM (active) | CCCS(=O)(=O)Nc1ccc(F)c(C(=O)c2c[nH]c3ncc(-c4ccc(Cl)cc4)cc23)c1F [VEMURAFENIB] | > 30 µM (inactive)
> 30 µM (inactive) | > 30 µM (inactive) | > 30 µM (inactive) | > 30 µM (inactive) | > 30 µM (inactive) | > 30 µM (inactive) | > 30 µM (inactive) | > 30 µM (inactive) | > 30 µM (inactive) | > 30 µM (inactive) | 13.6 µM (active) | CCN1CCN(Cc2ccc(-c3cc4c(N[C@H](C)c5ccccc5)ncnc4[nH]3)cc2)CC1 [AEE-788] | > 30 µM (inactive)
> 30 µM (inactive) | > 30 µM (inactive) | > 30 µM (inactive) | > 30 µM (inactive) | > 30 µM (inactive) | > 30 µM (inactive) | > 30 µM (inactive) | > 30 µM (inactive) | > 30 µM (inactive) | > 30 µM (inactive) | > 30 µM (inactive) | CC[C@H](Nc1ncnc2[nH]cnc12)c1nc2cccc(F)c2c(=O)n1-c1ccccc1 [IDELALISIB] | > 30 µM (inactive)
> 30 µM (inactive) | > 30 µM (inactive) | > 30 µM (inactive) | > 30 µM (inactive) | > 30 µM (inactive) | > 30 µM (inactive) | > 30 µM (inactive) | > 30 µM (inactive) | > 30 µM (inactive) | > 30 µM (inactive) | > 30 µM (inactive) | CNS(=O)(=O)Nc1nccc(Cc2c(C)c3ccc(Oc4ncccn4)cc3oc2=O)c1F [AVUTOMETINIB] | > 30 µM (inactive)
> 30 µM (inactive) | > 30 µM (inactive) | > 30 µM (inactive) | > 30 µM (inactive) | > 30 µM (inactive) | > 30 µM (inactive) | > 30 µM (inactive) | > 30 µM (inactive) | > 30 µM (inactive) | > 30 µM (inactive) | > 30 µM (inactive) | O=C(O)[C@]1(Cc2cccc(Nc3nccs3)n2)CC[C@@H](Oc2cccc(Cl)c2F)CC1 [MK-5108] | > 30 µM (inactive)
> 30 µM (inactive) | > 30 µM (inactive) | > 30 µM (inactive) | > 30 µM (inactive) | > 30 µM (inactive) | > 30 µM (inactive) | > 30 µM (inactive) | > 30 µM (inactive) | > 30 µM (inactive) | > 30 µM (inactive) | > 30 µM (inactive) | CC(=O)Nc1cccc(-n2c(=O)n(C3CC3)c(=O)c3c(Nc4ccc(I)cc4F)n(C)c(=O)c(C)c32)c1 [TRAMETINIB] | > 30 µM (inactive)
> 30 µM (inactive) | > 30 µM (inactive) | > 30 µM (inactive) | > 30 µM (inactive) | > 30 µM (inactive) | > 30 µM (inactive) | > 30 µM (inactive) | > 30 µM (inactive) | > 30 µM (inactive) | > 30 µM (inactive) | > 30 µM (inactive) | CO[C@H]1C[C@@H]2CC[C@@H](C)[C@@](O)(O2)C(=O)C(=O)N2CCCC[C@H]2C(=O)O[C@H]([C@H](C)C[C@@H]2CC[C@@H](OCCO)[C@H](OC)C2)CC(=O)[C@H](C)/C=C(\C)[C@@H](O)[C@@H](OC)C(=O)[C@H](C)C[C@H](C)/C=C/C=C/C=C/1C [EVEROLIMUS] | > 30 µM (inactive)
> 30 µM (inactive) | > 30 µM (inactive) | > 30 µM (inactive) | > 30 µM (inactive) | > 30 µM (inactive) |  | > 30 µM (inactive) | > 30 µM (inactive) | > 30 µM (inactive) | > 30 µM (inactive) | > 30 µM (inactive) | Cc1ccc(S(=O)(=O)Nc2nc3ccccc3nc2Nc2ccc3nsnc3c2)cc1 | > 30 µM (inactive)
> 30 µM (inactive) | > 30 µM (inactive) | > 30 µM (inactive) | > 30 µM (inactive) | > 30 µM (inactive) |  | > 30 µM (inactive) | > 30 µM (inactive) | > 30 µM (inactive) | > 30 µM (inactive) | > 30 µM (inactive) | C[C@@H](c1ccc2nccn2c1)n1nnc2ncc(-c3cnn(C)c3)nc21 [SAVOLITINIB] | > 30 µM (inactive)

Structure (SMILES) | Kd [1] | Kd [2] | Kd [3] | Kd [4] | Kd [5] | Kd [6] | Kd [7] | Kd [9] | Kd [10] | Kd [11] | Kd [12] | Kd [8]
Cc1cc(-c2cc(O)ccc2Cl)cc2nnc(Nc3ccc(OCCN4CCCC4)cc3)nc12 | > 30 µM (inactive) | > 30 µM (inactive) | 0.003 µM (active) | > 30 µM (inactive) | > 30 µM (inactive) | > 30 µM (inactive) | > 30 µM (inactive) | > 30 µM (inactive) | > 30 µM (inactive) | 0.003 µM | > 30 µM (inactive) | > 30 µM (inactive)
